# In patent US11358985B2, “Tripeptide compound, preparation method therefor, and application thereof” (NORTHWEST UNIVERSITY, priority 2014, dated 2022):
# What was measured:
# [1] = target: angiotensin-converting enzyme (ACE) (UniProt P12822); format: biochemical; conditions: substrate HHL, 37° C., pH 8.3, hippuric acid at 228 nm
# mouse ACE = experiment: In vivo ACE activity test: ACE content in kidney tissue by double antibody sandwich ELISA; set-up: species or system Kunming mice; conditions: for ACE content: male Kunming mice, kidney homogenate, intragastric 0.05 mmol/kg once a day for 7 days, 2 h after final dose
# [2] = system: spontaneously hypertensive rats (SHR); experiment: Blood pressure in SHR rats after one administration (tail pulse indirect pressure measurement); format: in vivo, rat
# Protocol: (§1) SPF grade male spontaneously hypertensive model rats (SHR) (male, 12 weeks old, body weight 200 g±20 g) were divided into three groups: blank group, control group and sample group, with 6 rats each group. Animals were housed in the Shaanxi Provincial Biomedical Animal Laboratory at the School of Life Sciences of Northwest University at a temperature of 22° C. and a humidity of 50%, with 12 hours light/dark cycle and free to eat and drink water. The SHR rats were trained to adapt to blood pressure measurements after 5 days of adaptation to the environment. Prior to administration, the basal blood pressure of the rats in each group was measured and the systolic blood pressure was between 190±5 mmHg.
# The systolic blood pressure of the experimental rats was measured by tail pulse indirect pressure measurement. […]
# The particular measurement steps: the conscious rats were placed in the fixed box of the blood pressure meter. A heating plate at 30° C. was provided in the bottom of the fixed box, which was preheated for 10 min to expand the local blood vessels. […] After the signal was stabilized, the blood pressure was measured and the 5 readings with a change in blood pressure less than 10 mmHg were recorded, with an interval of 10 seconds. […]
# [3] = system: spontaneously hypertensive rats (SHR); experiment: Blood pressure in SHR rats after multiple administrations; format: in vivo, rat
# Protocol: as §1
# The particular measurement steps: the conscious rats were placed in the fixed box of the blood pressure meter. […] After the signal was stabilized, the blood pressure was measured and the 5 readings with a change in blood pressure less than 10 mmHg were recorded, with an interval of 10 seconds. […]
# According to the above method and dose, rats were administered intragastrically continuously for 7 days, once a day. Blood pressure was measured 2 hours after administration. After the end of the administration, blood pressure was measured continuously for 7 days, once a day, and the change in blood pressure was recorded.
# angiotensin-converting enzyme (ACE), sequence (P12822 whole entry): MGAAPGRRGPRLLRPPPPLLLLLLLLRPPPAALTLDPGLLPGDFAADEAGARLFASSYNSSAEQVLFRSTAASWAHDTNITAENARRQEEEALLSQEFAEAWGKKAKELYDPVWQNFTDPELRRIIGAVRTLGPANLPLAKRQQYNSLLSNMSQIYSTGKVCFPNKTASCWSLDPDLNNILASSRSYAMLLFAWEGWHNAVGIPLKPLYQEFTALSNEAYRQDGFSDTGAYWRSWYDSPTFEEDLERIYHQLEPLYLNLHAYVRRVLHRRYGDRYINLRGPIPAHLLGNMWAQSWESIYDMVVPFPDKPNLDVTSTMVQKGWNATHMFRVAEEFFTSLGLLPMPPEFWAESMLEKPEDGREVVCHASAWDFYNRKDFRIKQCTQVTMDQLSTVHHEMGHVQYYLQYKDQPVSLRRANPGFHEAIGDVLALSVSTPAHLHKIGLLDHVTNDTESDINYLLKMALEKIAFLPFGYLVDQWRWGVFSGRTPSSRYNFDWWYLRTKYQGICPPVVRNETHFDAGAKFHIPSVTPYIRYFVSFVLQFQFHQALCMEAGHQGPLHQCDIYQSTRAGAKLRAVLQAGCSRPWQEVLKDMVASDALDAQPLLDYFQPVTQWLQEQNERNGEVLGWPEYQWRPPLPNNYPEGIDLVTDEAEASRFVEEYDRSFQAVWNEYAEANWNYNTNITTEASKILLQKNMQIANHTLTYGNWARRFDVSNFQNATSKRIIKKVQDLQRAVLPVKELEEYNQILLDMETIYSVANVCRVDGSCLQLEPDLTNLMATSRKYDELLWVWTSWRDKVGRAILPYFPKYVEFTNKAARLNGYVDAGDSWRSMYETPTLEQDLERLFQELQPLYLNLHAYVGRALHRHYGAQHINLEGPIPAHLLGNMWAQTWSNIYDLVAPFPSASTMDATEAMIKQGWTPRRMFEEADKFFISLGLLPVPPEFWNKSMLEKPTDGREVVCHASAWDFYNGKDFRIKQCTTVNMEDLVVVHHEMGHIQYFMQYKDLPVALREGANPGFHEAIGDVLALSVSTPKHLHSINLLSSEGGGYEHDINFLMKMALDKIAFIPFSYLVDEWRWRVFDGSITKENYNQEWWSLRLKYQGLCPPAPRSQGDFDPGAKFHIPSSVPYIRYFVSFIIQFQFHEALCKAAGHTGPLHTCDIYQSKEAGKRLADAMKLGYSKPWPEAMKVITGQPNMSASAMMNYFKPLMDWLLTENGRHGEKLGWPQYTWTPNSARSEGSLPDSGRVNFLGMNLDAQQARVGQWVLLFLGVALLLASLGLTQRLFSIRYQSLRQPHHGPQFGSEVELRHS
SMILES,IC50 [1] [nM],ACE content (mouse ACE) [pg/mL],further results
CC(C)[C@H](NC(=O)[C@H](O)Cc1ccc(O)c(O)c1)C(=O)N1CCC[C@H]1C(=O)OC1CC2CCC1(C)C2(C)C (stereo partly drawn) [Compound 221S-2a],37 ± 5,87 ± 8,–
C[C@H](NC(=O)[C@H](O)Cc1ccc(O)c(O)c1)C(=O)N1CCC[C@H]1C(=O)OC1CC2CCC1(C)C2(C)C (stereo partly drawn) [Compound 221S-1a],23 ± 9,64 ± 8,"reduction of ACE content compared with captopril (in words) (mouse ACE; intragastric 0.05 mmol/kg, 7 days, summary of Table 8): most significant reduction effect; dose dependence of antihypertensive effect ([2]; single intragastric administration at different doses, within 6 hours (FIG. 3)): good dose-dependent relationship; antihypertensive effect (arterial systolic pressure) compared with captopril ([2]; single intragastric administration, within 6 hours (FIG. 2, 3)): antihypertensive effect was better than that of captopril; dose dependence of effect on arterial systolic pressure ([3]; 7 days intragastric at different doses, 14 days (FIG. 5)): dose-dependent; antihypertensive effect (arterial systolic pressure) compared with captopril ([3]; intragastric once a day for 7 days, followed over 14 days (FIG. 4)): better antihypertensive effect than captopril"
C[C@H](NC(=O)[C@@H](O)Cc1ccc(O)c(O)c1)C(=O)N1CCC[C@H]1C(=O)OC1CC2CCC1(C)C2(C)C (stereo partly drawn) [Compound 221S-1b],33 ± 6,78 ± 12,–
CC1(C)C2CCC1(C)C(OC(=O)[C@@H]1CCCN1C(=O)CNC(=O)[C@H](O)Cc1ccc(O)c(O)c1)C2 (stereo partly drawn) [Compound 221S-15a],33 ± 6,83 ± 11,–
CC1(C)C2CCC1(C)C(OC(=O)[C@@H]1CCCN1C(=O)[C@@H]1CCCN1C(=O)[C@H](O)Cc1ccc(O)c(O)c1)C2 (stereo in doubt) [Compound 221S-6a],43 ± 6,76 ± 5,–
C[C@H](NC(=O)c1ccc(O)c(O)c1)C(=O)N1CCC[C@H]1C(=O)OC1CC2CCC1(C)C2(C)C (stereo partly drawn) [Compound 221S-30a],35 ± 6,75 ± 8,–
C[C@H](NC(=O)/C=C/c1ccc(O)c(O)c1)C(=O)N1CCC[C@H]1C(=O)OC1CC2CCC1(C)C2(C)C (stereo partly drawn) [Compound 221S-28a],29 ± 7,79 ± 8,–
CC1(C)C2CCC1(C)C(OC(=O)[C@@H]1CCCN1C(=O)[C@H](Cc1ccccc1)NC(=O)[C@H](O)Cc1ccc(O)c(O)c1)C2 (stereo partly drawn) [Compound 221S-8a],65 ± 5,80 ± 7,–
CC(C)C[C@H](NC(=O)[C@H](O)Cc1ccc(O)c(O)c1)C(=O)N1CCC[C@H]1C(=O)OC1CC2CCC1(C)C2(C)C (stereo partly drawn) [Compound 221S-3a],27 ± 7,79 ± 7,–
C[C@H](NC(=O)c1cc(O)c(O)c(O)c1)C(=O)N1CCC[C@H]1C(=O)OC1CC2CCC1(C)C2(C)C (stereo partly drawn) [Compound 221S-31a],31 ± 8,71 ± 13,–
CSCC[C@H](NC(=O)[C@H](O)Cc1ccc(O)c(O)c1)C(=O)N1CCC[C@H]1C(=O)OC1CC2CCC1(C)C2(C)C (stereo partly drawn) [Compound 221S-7a],78 ± 5,71 ± 9,–
COc1cc(/C=C/C(=O)N[C@@H](C)C(=O)N2CCC[C@H]2C(=O)OC2CC3CCC2(C)C3(C)C)ccc1O (stereo partly drawn) [Compound 221S-27a],44 ± 3,82 ± 11,–
CC(C)(C)[C@H](NC(=O)[C@H](O)Cc1ccc(O)c(O)c1)C(=O)N1CCC[C@H]1C(=O)OC1CC2CCC1(C)C2(C)C (stereo partly drawn) [Compound 221S-5a],28 ± 9,89 ± 11,–
C[C@H](NC(=O)Cc1ccc(O)c(O)c1)C(=O)N1CCC[C@H]1C(=O)OC1CC2CCC1(C)C2(C)C (stereo partly drawn) [Compound 221S-29a],38 ± 5,85 ± 8,–
CCC(C)[C@H](NC(=O)[C@H](O)Cc1ccc(O)c(O)c1)C(=O)N1CCC[C@H]1C(=O)OC1CC2CCC1(C)C2(C)C (stereo partly drawn) [Compound 221S-4a],34 ± 7,82 ± 10,–
